Measured values taken from ChEMBL document CHEMBL5303573, “Mapping human microbiome drug metabolism by gut bacteria and their genes” (Nature, 2019).

Legend:
[1] = The drug is tested on Bacteroides cellulosilyticus strain: DSM14838 for biotransformation. The drug concentrations were measured before and after a 12-h incubation by liquid-chromatography-coupled mass spectrometry (LC–MS); details: 2 µM
[2] = bacteroides intestinalis, 12 h, 2 µM
Description: The drug is tested on Bacteroides intestinalis strain: DSM17393 for biotransformation. The drug concentrations were measured before and after a 12-h incubation by liquid-chromatography-coupled mass spectrometry (LC–MS)

[3] = The drug is tested on Ruminococcus torques strain: ATCC27756 for biotransformation. The drug concentrations were measured before and after a 12-h incubation by liquid-chromatography-coupled mass spectrometry (LC–MS); format: ADME; design: dose 2 uM, timepoint 0 vs 12 hours; details: 2 µM
[4] = limosilactobacillus reuteri cf48-3a, 12 h, 2 µM
Description: The drug is tested on Lactobacillus reuteri CF48-3A strain: BEI HM-102 for biotransformation. The drug concentrations were measured before and after a 12-h incubation by liquid-chromatography-coupled mass spectrometry (LC–MS)

[5] = The drug is tested on Collinsella intestinalis strain: DSM13280 for biotransformation. The drug concentrations were measured before and after a 12-h incubation by liquid-chromatography-coupled mass spectrometry (LC–MS); details: 2 µM
[6] = The drug is tested on Clostridium sporogenes strain: ATCC15579 for biotransformation. The drug concentrations were measured before and after a 12-h incubation by liquid-chromatography-coupled mass spectrometry (LC–MS); details: 2 µM
[7] = bacteroides thetaiotaomicron, 12 h, 2 µM
Description: The drug is tested on Bacteroides thetaiotaomicron strain: 3731 for biotransformation. The drug concentrations were measured before and after a 12-h incubation by liquid-chromatography-coupled mass spectrometry (LC–MS)

[8] = The drug is tested on Eubacterium ventriosum strain: ATCC27560 for biotransformation. The drug concentrations were measured before and after a 12-h incubation by liquid-chromatography-coupled mass spectrometry (LC–MS); format: ADME; design: dose 2 uM, timepoint 0 vs 12 hours; details: 2 µM
[9] = The drug is tested on Eggerthella lenta strain: ATCC25559 for biotransformation. The drug concentrations were measured before and after a 12-h incubation by liquid-chromatography-coupled mass spectrometry (LC–MS); details: 2 µM
[10] = The drug is tested on Anaerococcus hydrogenalis strain: DSM7454 for biotransformation. The drug concentrations were measured before and after a 12-h incubation by liquid-chromatography-coupled mass spectrometry (LC–MS); details: 2 µM
[11] = The drug is tested on Escherichia coli strain: BW25113 for biotransformation. The drug concentrations were measured before and after a 12-h incubation by liquid-chromatography-coupled mass spectrometry (LC–MS); details: 2 µM
[12] = The drug is tested on Bifidobacterium longum subsp. Infantis strain: CCUG52486 for biotransformation. The drug concentrations were measured before and after a 12-h incubation by liquid-chromatography-coupled mass spectrometry (LC–MS); details: 2 µM
[13] = The drug is tested on Parabacteroides merdae strain: ATCC43184 for biotransformation. The drug concentrations were measured before and after a 12-h incubation by liquid-chromatography-coupled mass spectrometry (LC–MS); details: 2 µM
[14] = bacteroides fragilis, 12 h, 2 µM
Description: The drug is tested on Bacteroides fragilis strain: DS-208 for biotransformation. The drug concentrations were measured before and after a 12-h incubation by liquid-chromatography-coupled mass spectrometry (LC–MS)

[15] = The drug is tested on Blautia luti strain: DSM14534 for biotransformation. The drug concentrations were measured before and after a 12-h incubation by liquid-chromatography-coupled mass spectrometry (LC–MS); format: ADME; design: dose 2 uM, timepoint 0 vs 12 hours; details: 2 µM
[16] = segatella copri, 12 h, 2 µM
Description: The drug is tested on Prevotella copri strain: DSM18205 for biotransformation. The drug concentrations were measured before and after a 12-h incubation by liquid-chromatography-coupled mass spectrometry (LC–MS)

[17] = The drug is tested on Eubacterium rectale strain: ATCC33656 for biotransformation. The drug concentrations were measured before and after a 12-h incubation by liquid-chromatography-coupled mass spectrometry (LC–MS); details: agathobacter rectalis, 2 µM
[18] = The drug is tested on Odoribacter splanchnicus strain: fecal isolate for biotransformation. The drug concentrations were measured before and after a 12-h incubation by liquid-chromatography-coupled mass spectrometry (LC–MS); details: 2 µM
[19] = The drug is tested on Bacteroides vulgatus strain: ATCC8482 for biotransformation. The drug concentrations were measured before and after a 12-h incubation by liquid-chromatography-coupled mass spectrometry (LC–MS); details: phocaeicola vulgatus, 2 µM
[20] = The drug is tested on Clostridium asparagiforme strain: DSM15981 for biotransformation. The drug concentrations were measured before and after a 12-h incubation by liquid-chromatography-coupled mass spectrometry (LC–MS); format: ADME; design: dose 2 uM, timepoint 0 vs 12 hours; details: enterocloster asparagiformis, 2 µM

Compound | Bacterial Biotransformation [1] | Bacterial Biotransformation [2] | Bacterial Biotransformation [3] | Bacterial Biotransformation [4] | Bacterial Biotransformation [5] | Bacterial Biotransformation [6] | Bacterial Biotransformation [7] | Bacterial Biotransformation [8] | Bacterial Biotransformation [9] | Bacterial Biotransformation [10] | Bacterial Biotransformation [11] | Bacterial Biotransformation [12] | Bacterial Biotransformation [13] | Bacterial Biotransformation [14] | Bacterial Biotransformation [15] | Bacterial Biotransformation [16] | Bacterial Biotransformation [17] | Bacterial Biotransformation [18] | Bacterial Biotransformation [19] | Bacterial Biotransformation [20]
O=C(O[C@H]1C[C@H]2CC[C@@H](C1)[N+]21CCCC1)C(O)(c1ccccc1)c1ccccc1.[Cl-] [TROSPIUM CHLORIDE] | Compound NOT metabolized | Compound NOT metabolized | Compound NOT metabolized | Compound NOT metabolized | Compound NOT metabolized | Compound NOT metabolized | Compound NOT metabolized | Compound NOT metabolized | Compound NOT metabolized | Compound NOT metabolized | Compound NOT metabolized | Compound NOT metabolized | Compound NOT metabolized | Compound NOT metabolized | Compound NOT metabolized | Compound NOT metabolized | Compound NOT metabolized |  |  | 
CCC(=O)NCC[C@@H]1CCc2ccc3c(c21)CCO3 [RAMELTEON] | Compound NOT metabolized |  | Compound NOT metabolized | Compound NOT metabolized | Compound NOT metabolized | Compound NOT metabolized | Compound metabolized | Compound NOT metabolized | Compound NOT metabolized | Compound NOT metabolized | Compound NOT metabolized | Compound NOT metabolized | Compound metabolized | Compound metabolized | Compound NOT metabolized | Compound metabolized |  | Compound metabolized | Compound metabolized | 
CCCCC(=O)N(Cc1ccc(-c2ccccc2-c2nnn[nH]2)cc1)[C@H](C(=O)O)C(C)C |  | Compound metabolized | Compound NOT metabolized | Compound NOT metabolized | Compound NOT metabolized | Compound NOT metabolized | Compound metabolized | Compound NOT metabolized | Compound NOT metabolized | Compound NOT metabolized | Compound NOT metabolized | Compound NOT metabolized | Compound NOT metabolized | Compound metabolized |  | Compound NOT metabolized | Compound NOT metabolized | Compound metabolized | Compound metabolized | 
CCc1nc(N)nc(N)c1-c1ccc(Cl)cc1 [PYRIMETHAMINE] | Compound NOT metabolized | Compound NOT metabolized | Compound NOT metabolized | Compound NOT metabolized | Compound NOT metabolized | Compound NOT metabolized | Compound NOT metabolized | Compound NOT metabolized | Compound NOT metabolized | Compound NOT metabolized |  | Compound NOT metabolized | Compound NOT metabolized | Compound NOT metabolized | Compound NOT metabolized | Compound NOT metabolized |  | Compound NOT metabolized | Compound NOT metabolized | Compound NOT metabolized
CC12CC3CC(C)(C1)CC(N)(C3)C2 [MEMANTINE] |  | Compound NOT metabolized | Compound NOT metabolized |  | Compound NOT metabolized | Compound NOT metabolized | Compound NOT metabolized |  | Compound NOT metabolized | Compound NOT metabolized | Compound NOT metabolized | Compound NOT metabolized | Compound NOT metabolized | Compound NOT metabolized | Compound NOT metabolized |  |  | Compound NOT metabolized | Compound NOT metabolized | Compound NOT metabolized
OC(c1cc(C(F)(F)F)nc2c(C(F)(F)F)cccc12)C1CCCCN1 (stereo not given) [MEFLOQUINE] | Compound NOT metabolized | Compound NOT metabolized |  | Compound NOT metabolized | Compound NOT metabolized |  | Compound NOT metabolized | Compound NOT metabolized | Compound metabolized |  | Compound metabolized | Compound NOT metabolized | Compound NOT metabolized |  | Compound NOT metabolized | Compound NOT metabolized | Compound NOT metabolized |  | Compound NOT metabolized | Compound NOT metabolized
CCCCc1nc(Cl)c(CO)n1Cc1ccc(-c2ccccc2-c2nn[nH]n2)cc1 [LOSARTAN] | Compound metabolized |  | Compound NOT metabolized | Compound NOT metabolized | Compound NOT metabolized | Compound NOT metabolized | Compound NOT metabolized | Compound NOT metabolized | Compound NOT metabolized | Compound NOT metabolized |  | Compound NOT metabolized | Compound metabolized |  | Compound NOT metabolized | Compound NOT metabolized | Compound NOT metabolized | Compound metabolized | Compound metabolized | 
CCCCC(=O)O[C@]1(C(=O)CO)[C@@H](C)C[C@H]2[C@@H]3CCC4=CC(=O)C=C[C@]4(C)[C@@]3(F)[C@@H](O)C[C@@]21C [BETAMETHASONE VALERATE] | Compound NOT metabolized |  |  | Compound metabolized | Compound NOT metabolized |  | Compound metabolized |  | Compound metabolized | Compound NOT metabolized | Compound metabolized |  |  | Compound metabolized |  | Compound NOT metabolized | Compound NOT metabolized | Compound metabolized | Compound metabolized | Compound NOT metabolized
C[C@@H]1C[C@H]2[C@@H]3CCC4=CC(=O)C=C[C@]4(C)[C@@]3(F)[C@@H](O)C[C@]2(C)[C@@]1(O)C(=O)CO [DEXAMETHASONE] |  | Compound NOT metabolized | Compound NOT metabolized |  | Compound NOT metabolized |  | Compound NOT metabolized |  | Compound NOT metabolized | Compound NOT metabolized | Compound NOT metabolized |  |  | Compound metabolized | Compound NOT metabolized | Compound NOT metabolized | Compound NOT metabolized |  |  | Compound NOT metabolized
